{
  "source": "patent US5663150A",
  "about": "“Cyclopentane-β-amino acid tripeptides” (Bayer Aktiengesellschaft, priority 1995, dated 1997)",
  "system": "C. albicans",
  "assay": "systemic mouse candidiasis, in-vivo antimycotic activity",
  "details": "male CFW1 mice infected i.v. with 3×10^5 CFU C. albicans; 50 mg/kg 2 × daily p.o. for 5 days; survival up to 10th day p.i.; 10 animals per group",
  "method": "Testing of in-vivo activity\nThe test model for antimycotic in-vivo actions used was systemic mouse candidias is:\nMale CFW1 mice of weight 20 g were infected in the tail vein by injection of 3×10^5 CFU of C. albicans per animal.\nUntreated control animals died completely within one week post-infectionem (p.i.) of a generalized candidiasis with granuloma formation in the kidneys. For activity testing, the preparations, dissolved in a 0.2% strength aqueous glucose-agar solution, were administered orally by stomach tube to the infected animals twice daily.\nThe daily doses were 2×50 mg/kg of body weight (BW), the treatment period was 5 days.\nThe survival rates of the treated animals were noted daily up to the 10th day p.i. In the case of the untreated control animals, no animals survived at this point.\nFor the preparations, 10 animals each were employed per dose and control group.",
  "data": [
    {"smiles": "C=C1C[C@H](NC(=O)[C@@H](NC(=O)[C@@H](N)C(C)CC)C(C)CC)[C@H](C(=O)O)C1", "note": "(relative stereo) [Example 1, (-)-1,2-cis-(2-((S)-Isoleucyl)-(S)-isoleucylamino)-4-methylenecyclopentane-1-carboxylic acid]", "values": [
      {"measurement": "Number of surviving animals", "result": "8/10"}
    ]}
  ]
}
